Reference: patent US20250339391A1, “METHODS FOR EFFECTIVE MANAGEMENT OF PAIN” (South Rampart Pharma, Inc., priority 2024, published 2025)
Entries after “also recorded” stand apart in the source; their conditions may differ.

Tests used:
[1] = system: Chinese Hamster Ovary Cells; test: In vitro mammalian chromosomal aberration assay; format: cell-based; conditions: for doses with cytotoxicity: non-activated 20-h exposure
Method: To further evaluate the potential genotoxicity of SRP-001 and determine the validity of the in vitro findings, a second in vivo assay, a GLP-compliant Comet assay, was conducted in accordance with ICH S2(R1) Guidance on Genotoxicity Testing and Data Interpretation for Pharmaceuticals Intended for Human Use. […] SRP-001 was tested to evaluate its mutagenic potential by measuring its ability to induce reverse mutations at selected loci of several strains of Salmonella typhimurium (S. typhimurium) and at the tryptophan locus of Escherichia coli (E. coli) strain WP2 uvrA in the presence and absence of an exogenous metabolic activation system (Bioreliance, Rockville, MD USA). Dimethyl sulfoxide (10% DMSO) was used as the vehicle. The dose levels tested in the preliminary toxicity assay were 6.67, 10.0, 33.3, 66.7, 100, 333, 667, 1000, 3333, and 5000 μg per plate. No precipitate was observed. […] The dose levels tested in the mutagenicity assay were 100, 333, 667, 1000, 3333, and 5000 μg per plate. […] In the preliminary toxicity assay, the doses tested ranged from 0.0405 to 405 μg/mL (1 mM), which was the limit dose for this assay (Bioreliance, Rockville, MD USA).
The doses selected for evaluation of chromosome aberrations were 150, 300, and 405 μg/mL for the non-activated and S9-activated 4-h exposure groups; and 10, 40, and 80 μg/mL for the non-activated 20-h exposure group. […] The induction of structural aberrations was outside the 95% control limit of the historical negative control data of 0.00% to 2.79%. […] However, the induction of structural aberrations was within the 95% control limit of the historical negative control data of 0.00% to 4.28%. […] The induction of structural aberrations was outside the 95% control limit of the historical negative control data of 0.00% to 2.68%.

[2] = system: conscious male Sprague-Dawley rats; test: Pulmonary function evaluation in conscious male Sprague-Dawley rats (GLP); format: in vivo, rat; conditions: 220, 440 and 660 mg/kg oral
Method: The potential effects of orally administered SRP-001 on respiratory rate, tidal volume, and minute volume in conscious male Sprague-Dawley rats was studied in 24 male rats. The rodents were trained for two days in the head-out plethysmograph chamber for 15-17 min each prior to the experiment. On the day of dosing, each animal was weighed and placed in the plethysmograph chamber, and baseline respiratory parameters were obtained for 5 min following an approximately 5-min stabilization period. The rats were then removed from the chamber and dosed by oral gavage. Three groups of six male Sprague-Dawley rats each were orally administered SRP-001 at a single dose of 220, 440, or 660 mg/kg at a dose volume of 10 mL/kg. […] Following dosing, each animal was returned to its designated plethysmograph chamber, and the respiratory parameters were recorded at 30 min (±5 min), 2, 4, and 6 h (±15 min). Animals were allowed to stabilize in the plethysmograph chamber for at least 5 min before each reading was taken. The following parameters were acquired, recorded, and analyzed using Ponemah Physiology Platform (Ponemah v.5.20 Pulmonary); Respiratory rate, Tidal Volume, and Minute Volume, Values for the test article treated group were compared to the vehicle control values using a two-way repeated measures ANOVA followed by a Bonferroni Multiple Comparison Test (SigmaStat, v. 4.0). […]

Sprague-Dawley rats = test: CFA inflammatory pain / von Frey with electronic detection (eVF); format: in vivo, rat; conditions: behavioral assays
[3] = Stability of API and oral nanosuspension; format: physicochemical
Method: The drug therapeutic candidate is manufactured in a two-step process (Latitude Pharmaceuticals, Inc., San Diego, CA USA). First, SRP-001 is jet milled. Second, the milled API is dispersed in a solution comprising 1% hydroxypropyl cellulose (1% HPC) and sterile water for injection and subjected to wet milling. The target particle size is approximately D90 0.15 μm. […] An oral nanoparticle suspension containing 100 mg/mL SRP-001 in aqueous 1% HPC preserved with 0.1% sodium benzoate was manufactured for use in nonclinical studies as Lot LPI2021028 and stored at 5° C.±3° C. […] The same formulation as above was manufactured under cGMP for use in clinical studies as Lot LPI2021031 and stored at 5° C.±3° C. […] This lot has been placed on stability at 5° C., 25° C./60% RH, and 40° C./75% RH. Finally, an appearance-matched placebo consisting of 2% microcrystalline cellulose in aqueous 1% HPC preserved with 0.1% sodium benzoate and 0.05% EDTA disodium dihydrate was manufactured under cGMP for use in clinical studies. The above oral suspensions were manufactured by Latitude Pharmaceuticals Inc. (San Diego, CA, USA).

hERG current = molecular target: T1, hERG current (Homo sapiens, UniProt Q12809); test: In vitro hERG cardiotoxicity assay in human embryonic kidney cells; format: cell-based
T1 construct: expressed in transfected cells; host or cells: human embryonic kidney cells
T1 sequence (Q12809 whole entry): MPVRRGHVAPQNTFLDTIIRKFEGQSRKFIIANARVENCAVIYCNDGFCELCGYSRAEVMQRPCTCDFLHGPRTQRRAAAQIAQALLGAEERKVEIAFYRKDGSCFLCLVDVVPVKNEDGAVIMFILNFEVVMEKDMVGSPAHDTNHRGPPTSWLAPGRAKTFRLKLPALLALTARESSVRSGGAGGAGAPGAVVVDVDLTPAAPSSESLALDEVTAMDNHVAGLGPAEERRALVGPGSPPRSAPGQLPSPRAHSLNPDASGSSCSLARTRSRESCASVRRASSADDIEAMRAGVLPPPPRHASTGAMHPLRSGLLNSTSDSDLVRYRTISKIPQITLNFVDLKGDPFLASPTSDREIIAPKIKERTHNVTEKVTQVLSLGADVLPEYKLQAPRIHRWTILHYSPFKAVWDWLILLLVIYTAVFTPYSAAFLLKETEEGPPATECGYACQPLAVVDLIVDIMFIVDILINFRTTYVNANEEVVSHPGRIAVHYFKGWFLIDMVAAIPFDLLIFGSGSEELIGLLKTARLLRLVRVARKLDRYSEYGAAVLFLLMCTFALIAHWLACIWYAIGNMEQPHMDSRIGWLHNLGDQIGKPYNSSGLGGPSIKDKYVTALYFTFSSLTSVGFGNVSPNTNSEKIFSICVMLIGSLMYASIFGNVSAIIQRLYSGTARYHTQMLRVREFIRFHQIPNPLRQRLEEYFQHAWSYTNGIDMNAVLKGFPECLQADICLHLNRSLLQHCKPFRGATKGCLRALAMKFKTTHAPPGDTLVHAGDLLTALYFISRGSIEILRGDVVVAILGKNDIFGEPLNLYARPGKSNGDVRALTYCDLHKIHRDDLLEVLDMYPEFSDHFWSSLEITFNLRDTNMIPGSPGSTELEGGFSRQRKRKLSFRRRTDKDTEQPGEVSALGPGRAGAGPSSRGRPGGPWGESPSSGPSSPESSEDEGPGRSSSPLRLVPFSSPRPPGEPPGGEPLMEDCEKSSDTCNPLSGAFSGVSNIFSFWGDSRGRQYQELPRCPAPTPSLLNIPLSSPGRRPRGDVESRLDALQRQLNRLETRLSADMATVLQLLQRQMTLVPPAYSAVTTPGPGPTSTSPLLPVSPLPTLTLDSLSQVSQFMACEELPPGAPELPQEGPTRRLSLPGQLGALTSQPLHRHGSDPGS
Method: (§1) The effects of SRP-001 on hERG current amplitude at physiologic temperatures were evaluated over a nominal concentration range of 0.1 μM to 100M. A vehicle group (10% DMSO) was included in the study for comparison, and dofetilide (10 nM) was used as a reference substance. The vehicle and positive controls indicated appropriate sensitivity of the test systems. […] Next, the potential acute effects of oral SRP-001 on cardiovascular function in conscious telemetered beagle dogs was done using a Latin Square design; 4 male naïve beagle dogs each received vehicle (10% DMSO: 10% labrasol: 80% PEG400) and three doses (30, 90, and 150 mg/kg) of SRP-001 nanosuspension by oral gavage. […] A single dose was administered on the day of dosing, and a washout period of seven days was allowed between doses. One-min means of hemodynamic parameters, as well as ECG parameters and body temperature, were measured for a period of at least 24 h. One-min tracings of the ECGs were obtained at 15 min prior to dosing and at 30 min, 1, 2, 4, 8, 12, and 24 h post-dose. Qualitative evaluation of the ECGs was done by a board-certified veterinary cardiologist.

[4] = system: conscious telemetered beagle dogs; test: Cardiovascular effect in conscious telemetered beagle dogs (GLP); format: in vivo, dog
Method: as §1

SMILES: CCN(CC)C(=O)c1ccccc1S(=O)(=O)NCC(=O)Nc1ccc(O)cc1 [SRP-001, N,N-diethyl-2-[[2-(4-hydroxyanilino)-2-oxo-ethyl]sulfamoyl]benzamide]
- induction of numerical chromosomal aberrations, conclusion [1]: negative for the induction of numerical chromosomal aberrations
- structural aberrations ([1]; Chinese hamster, 20 h, 80 μg/mL): 3.7%
- dose with cytotoxicity ([1]; chromosome aberration assay, non-activated 4-h exposure): 405 µg/mL
- doses with cytotoxicity ([1]; chromosome aberration assay): ≥ 70 µg/mL
- doses with cytotoxicity ([1]; preliminary toxicity assay): ≥ 122 µg/mL
- effects on respiratory rate, tidal volume, minute volume [2]: no effects on pulmonary function or cardio-telemetry; also recorded: did not induce any significant effects
- locomotor activity or motor incoordination (Sprague-Dawley rats): no overt alterations
- API stable for ([3]; 25° C./60% RH): at least 9 months
- API stable for ([3]; 40° C./75% RH): ≥ 6 months
- hERG signal / blocker class (hERG current; 0.1 μM to 100 μM): weak blocker of hERG current; also recorded: absent relevant signal
- block of hERG current (hERG current; 100 μM, highest concentration tested, physiologic temperatures): 21.4±3.9%
- effects on blood pressure, heart rate, ECG morphology, ECG measurements, body temperature ([4]; 30, 90 and 150 mg/kg oral): no effects on pulmonary function or cardio-telemetry; also recorded: did not induce any biologically relevant effects
- QTc ([4]; telemetered safety pharmacology study in dogs): no prolonged QTc
